Assays:
human 5-HT1A receptor = target: T1, human 5-HT1A receptor (Homo sapiens, UniProt P08908); assay: Affinity measurement of the compounds to human 5-HT1A receptor (in vitro), [3H]8-OH-DPAT binding; conditions: test compound 100 nmols/L; [3H]8-OH-DPAT 0.25 nmols/L; CHO cell membrane expressing human 5-HT1A receptor; read-out: Percent Inhibition (%) on Each Receptor's Binding at 10^−7M, 5-HT1A
T1 construct: purchased Packard Bioscience; host or cells: CHO cells (membrane preparation)
T1 sequence (P08908 1-422): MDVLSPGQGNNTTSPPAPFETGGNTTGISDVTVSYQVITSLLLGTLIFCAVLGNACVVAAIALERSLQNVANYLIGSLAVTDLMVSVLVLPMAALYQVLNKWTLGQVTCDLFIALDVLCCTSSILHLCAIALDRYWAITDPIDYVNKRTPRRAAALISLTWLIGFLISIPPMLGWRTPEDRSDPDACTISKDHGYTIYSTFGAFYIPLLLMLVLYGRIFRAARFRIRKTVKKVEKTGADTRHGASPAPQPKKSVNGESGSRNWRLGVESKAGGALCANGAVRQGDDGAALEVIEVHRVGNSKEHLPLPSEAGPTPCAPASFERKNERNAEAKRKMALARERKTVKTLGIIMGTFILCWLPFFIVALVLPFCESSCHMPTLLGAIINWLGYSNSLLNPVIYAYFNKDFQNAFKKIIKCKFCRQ
Summary of the method: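 Membranes from CHO cells expressing human 5-HT1A were incubated 60 min at 27 °C with 0.25 nmol/L [3H]8-OH-DPAT and compound in Tris/MgSO4/EDTA/ascorbate buffer, pH 7.4. Bound radioactivity was collected on PEI-soaked GF/C filters and counted; percent inhibition was corrected for non-specific binding defined with 10 μmol/L 8-OH-DPAT.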

human 5-HT3 receptor = target: T2, human 5-HT3 receptor (Homo sapiens, UniProt P46098); assay: Measurement of affinity to human 5-HT3 receptor (in vitro), [3H]BRL-43694 binding; conditions: test compound 100 nmols/L; [3H]BRL-43694 0.5 nmols/L; HEK-293 cell membrane expressing human 5-HT3 receptor; read-out: Percent Inhibition (%) on Each Receptor's Binding at 10^−7M, 5-HT3
T2 construct: purchased BIOLINKS K.K; host or cells: HEK-293 cells (membrane preparation)
T2 sequence (P46098 24-478): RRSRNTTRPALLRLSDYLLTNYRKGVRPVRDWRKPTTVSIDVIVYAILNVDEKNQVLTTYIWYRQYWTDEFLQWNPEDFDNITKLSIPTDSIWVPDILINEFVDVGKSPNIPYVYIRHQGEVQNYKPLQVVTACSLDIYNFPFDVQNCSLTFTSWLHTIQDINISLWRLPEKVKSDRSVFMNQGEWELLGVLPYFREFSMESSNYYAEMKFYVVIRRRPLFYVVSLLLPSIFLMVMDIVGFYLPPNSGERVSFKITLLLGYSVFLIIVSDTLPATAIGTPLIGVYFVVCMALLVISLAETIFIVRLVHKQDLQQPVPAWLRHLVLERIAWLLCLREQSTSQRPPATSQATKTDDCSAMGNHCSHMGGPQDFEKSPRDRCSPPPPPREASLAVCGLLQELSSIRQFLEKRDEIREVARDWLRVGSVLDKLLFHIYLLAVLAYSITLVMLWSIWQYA
Summary of the method: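 Membranes from HEK-293 cells expressing the receptor were incubated with 0.5 nmol/L radioligand and compound for 60 min at 25 °C in Tris/MgCl2/EDTA buffer, pH 7.5. Bound radioactivity was collected by filtration and counted. Percent inhibition was corrected for non-specific binding defined with 10 μmol/L tropisetron; compounds were tested at 100 nmol/L.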

[1] = test system: rats under restraint stress; assay: Measurement of defecation acceleration in rats under restraint stress; type: in vivo, rat; conditions: 1 hour restraint stress, group average (Normal 1.7, Control 6.8)
Method: (5) Measurement of Defecation Acceleration in Rats under Restraint Stress […] Feed and drinking water were left for their free ingestion until the morning of the day on which the test was given. On the day of the experiment, test compounds were orally administered and positive control solution (the used compounds were dissolved in 1N-hydrochloric acid and diluted with a suitable amount of saline) was administered intraperitoneally. Five (5) minutes thereafter, under lightly anesthetized condition, the rats were placed under restraint stress, with their upper half of the bodies including the front feet immobilized with gum tape. The restraint stress loading was conducted for an hour, and the number of excrements discharged during that period was counted. […] Those compounds which were used as the positive control chemicals used in the acceleration of defecation in rats under restraint stress are identified with the following structures.

| SMILES | melting point [°C] | also measured |
| --- | --- | --- |
| Cc1sc2nc(SCCCN3CCN(c4nc5ccccc5s4)CC3)n(N)c(=O)c2c1C [Example 1-6, 3-amino-2-[3-(4-benzothiazol-2-ylpiperazin-1-yl)propylthio]-5,6-dimethyl-3H-thieno[2,3-d]pyrimidin-4-one] | 200.5 to 201.2 |  |
| Cc1sc2nc(SCCCN3CCN(c4ccccn4)CC3)n(N)c(=O)c2c1C [Example 1-2, 3-amino-5,6-dimethyl-2-[3-(4-pyridin-2-ylpiperazin-1-yl)propylthio]-3H-thieno[2,3-d]pyrimidin-4-one] | 183.1 to 184.8 |  |
| O=c1[nH]c(SCCCN2CCN(c3ccccn3)CC2)nc2sc3c(c12)CCCC3 [Example 2-2, 2-[3-(4-pyridin-2-ylpiperazin-1-yl)propylthio]-5,6,7,8-tetrahydro-3H-benzo[4,5]thieno[2,3-d]pyrimidin-4-one] | 190.2 to 191.6 |  |
| Cc1sc2nc(SCCCN3CCN(c4ccccn4)CC3)[nH]c(=O)c2c1C [Example 2-1, 5,6-dimethyl-2-[3-(4-pyridin-2-ylpiperazin-1-yl)propylthio]-3H-thieno[2,3-d]-pyrimidin-4-one] | 209 to 209.4 | inhibition at 0.1 µM (human 5-HT1A receptor): 60.8%; inhibition at 0.1 µM (human 5-HT3 receptor): 52.6% |
| Cc1sc2nc(SCCCN3CCN(c4ccc5ccccc5n4)CC3)[nH]c(=O)c2c1C [Example 2-4, 5,6-dimethyl-2-[3-(4-quinolin-2-yl-piperazin-1-yl)propylthio]-3H-thieno[2,3-d]pyrimidin-4-one] | 224.8 to 225.9 |  |
| CCOC(=O)c1sc2nc(SCCCN3CCN(c4ccc5ccccc5n4)CC3)[nH]c(=O)c2c1C [Example 2-6, 5-methyl-4-oxo-2-[3-(4-quinolin-2-ylpiperazin-1-yl)propylthio]-3,4-dihydrothieno[2,3-d]pyrimidine-6-carboxylic acid ethyl ester] | 200.1 to 201.4 |  |
| O=c1[nH]c(CCCCN2CCN(c3ccccn3)CC2)nc2sc3c(c12)CCCC3 [Example 3-10, 2-[4-(4-pyridin-2-ylpiperazin-1-yl)butyl]-5,6,7,8-tetrahydro-3H-benzo[4,5]thieno[2,3-d]pyrimidin-4-one] | 192.6 to 194.4 |  |
| Cc1[nH]cnc1CN1CCc2c(c3ccccc3n2C)C1=O.Cl [alosetron, reference compound] |  | Number of excrements ([1]; 0.3 mg/kg intraperitoneal administration): 5.2; Number of excrements ([1]; 1 mg/kg intraperitoneal administration): 4.1; Number of excrements ([1]; 3 mg/kg intraperitoneal administration): 3.7 |
| CCOC(=O)c1sc2nc(SCCCN3CCN(c4ccccn4)CC3)[nH]c(=O)c2c1C [Example 2-3, 5-methyl-4-oxo-2-[3-(4-pyridin-2-ylpiperazin-1-yl)propylthio]-3,4-dihydrothieno[2,3-d]pyrimidine-6-carboxylic acid ethyl ester] | 160.1 to 161.8 |  |
